{
  "source": "patent US5439902A",
  "about": "“14α, 16α-ethanoand 14α, 16α-etheno-estratrienes” (Schering Aktiengesellschaft, priority 1991, dated 1995)",
  "key": {"[1]": {"system": "vaginal epithelium", "assay": "Allen-Doisy test (vaginal smears, threshold at which 50% of the animals reach stage 3)", "type": "in vivo, ovariectomized rats", "details": "for Allen-Doisy Test p.o. [ED50] / Allen-Doisy Test s.c. [ED50]: ovariectomized rats, one-time administration d1, smears d3-d5", "method": "In the Allen-Doisy test, an evaluation of vaginal smears in ovariectomized rats is performed on days 3-5 (d3-d5) after the one-time administration on day 1 (d1) of the test substance. The following cycle stages are distinguished:\n1=diestrus (leukocytes and nucleated epithelial cells),\n2=proestrus (nucleated epithelial cells),\n3=estrus (denucleated horny plaques),\n4=metestrus (denucleated horny plaques, leukocytes, epithelial cells).\nAfter oral or subcutaneous administration, estrogenically active substances result in the proliferation of the vaginal epithelium and the hornification of superficial cell layers. As a threshold value, that amount of an estrogen is indicated in which 50% of the animals reach stage 3. Further, estrogens cause an increase of the uterus weight."}, "[2]": {"system": "Estrogen-receptor", "assay": "Estrogen-receptor test (KF)", "type": "binding", "details": "estradiol = 1.0"}},
  "data": [
    {"compound": "C[C@]12CC[C@@H]3c4ccc(O)cc4CC[C@H]3[C@@]13CC[C@H](C3)[C@H]2O", "note": "[14α,16α-ethano-estra-1,3,5(10)-triene-3,17α-diol]", "values": [
      {"measurement": "Allen-Doisy Test p.o. [ED50]", "setting": "[1]", "result": "3-10 μg/animal/day"},
      {"measurement": "threshold value (50% of the animals reach stage 3)", "setting": "[1]; s.c., rat, FIG. 1, threshold already exceeded after only 0.3 μg", "result": "< 0.3", "unit": "µg"},
      {"measurement": "Allen-Doisy Test s.c. [ED50]", "setting": "[1]; s.c.", "result": "0.1-0.3 μg/animal/day"},
      {"measurement": "Estrogen-receptor test (KF)", "setting": "[2]", "result": 0.5}
    ]},
    {"compound": "C[C@]12CC[C@@H]3c4ccc(O)cc4CC[C@H]3[C@@]13CC[C@H](C3)[C@@H]2O", "note": "[14α,16α-ethano-estra-1,3,5(10)-triene-3,17β-diol]", "values": [
      {"measurement": "Allen-Doisy Test p.o. [ED50]", "setting": "[1]", "result": 1.0, "unit": "μg/animal/day"},
      {"measurement": "Allen-Doisy Test s.c. [ED50]", "setting": "[1]; s.c.", "result": "0.1-0.3 μg/animal/day"},
      {"measurement": "Estrogen-receptor test (KF)", "setting": "[2]", "result": 1.0}
    ]},
    {"compound": "C[C@]12CC[C@@H]3c4ccc(O)cc4CC[C@H]3[C@@]13C=C[C@H](C3)[C@H]2O", "note": "[14α,16α-etheno-estra-1,3,5(10)-triene-3,17α-diol]", "values": [
      {"measurement": "Estrogen-receptor test (KF)", "setting": "[2]", "result": 1.5}
    ]},
    {"compound": "C[C@]12CC[C@@H]3c4ccc(O)cc4CC[C@H]3[C@@H]1CC[C@H]2O", "note": "[17α-Estradiol, reference compound]", "values": [
      {"measurement": "Estrogen-receptor test (KF)", "setting": "[2]", "result": 46.0}
    ]},
    {"compound": "C[C@]12CC[C@@H]3c4ccc(O)cc4CC[C@H]3[C@@H]1CC[C@@H]2O", "note": "[Estradiol, reference compound]", "values": [
      {"measurement": "Estrogen-receptor test (KF)", "setting": "[2]", "result": 1.0}
    ]}
  ]
}
